Data taken from PubChem BioAssay AID624167 (Sanford-Burnham Center for Chemical Genomics, 2012).
pIC50: −log10 of the molar value. Active and inactive are the calls of the source.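 The calls were made as follows: active = mean IC50 for reducing PEG3 promoter reporter signal at or below a set limit, with IC50 above the limit in both counter screens; inactive = the rest, including counter screen hits.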

Key:
Assay in all cases: inhibition of PEG-3 promoter-driven reporter – cell-based, HeLa, luciferase, CREF/GAPDH counter-screen panel, dose response (AID 624167)
PEG-3 [1] = molecular target: PEG-3 (UniProt Q6IN02); conditions: HeLa PEG-Prom luciferase reporter, overnight, CREF/GAPDH counter-screens, mean of runs
Rat fibroblasts (CREF) = conditions: CREF/GAPDH counter-screens
PEG-3 [2] = conditions: HeLa PEG-Prom luciferase reporter, overnight, CREF/GAPDH counter-screens
[3] = run 1, dose range 1, individual replicate IC50 per panel
[4] = run 2, dose range 1, individual replicate IC50 per panel

PEG-3 (UniProt Q6IN02), sequence (Q6IN02 whole entry, looked up): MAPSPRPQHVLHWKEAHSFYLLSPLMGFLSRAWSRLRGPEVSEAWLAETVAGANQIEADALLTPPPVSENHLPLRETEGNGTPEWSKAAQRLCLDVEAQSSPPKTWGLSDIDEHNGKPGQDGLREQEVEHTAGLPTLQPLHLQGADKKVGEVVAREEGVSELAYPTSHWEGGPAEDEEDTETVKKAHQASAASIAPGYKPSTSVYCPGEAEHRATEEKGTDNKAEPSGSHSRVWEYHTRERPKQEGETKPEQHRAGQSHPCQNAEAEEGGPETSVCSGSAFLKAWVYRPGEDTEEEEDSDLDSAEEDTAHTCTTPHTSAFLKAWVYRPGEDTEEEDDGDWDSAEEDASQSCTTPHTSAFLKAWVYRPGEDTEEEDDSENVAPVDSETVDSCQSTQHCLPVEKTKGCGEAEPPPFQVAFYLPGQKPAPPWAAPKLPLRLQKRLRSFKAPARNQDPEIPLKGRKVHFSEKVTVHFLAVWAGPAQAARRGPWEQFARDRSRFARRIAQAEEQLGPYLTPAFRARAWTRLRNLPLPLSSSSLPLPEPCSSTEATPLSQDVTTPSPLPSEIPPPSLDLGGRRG

Compound	pIC50 (PEG-3 [1])	pIC50 (Rat fibroblasts (CREF); mean of runs)	pIC50 (Rat fibroblasts (CREF); [3])	pIC50 (Rat fibroblasts (CREF); [4])	pIC50 (PEG-3 [2]; [3])	pIC50 (PEG-3 [2]; [4])	IC50 (PEG-3 [1])
Cc1ccc(C(=O)Nc2ncc([N+](=O)[O-])s2)cc1	5.56	5.05	5.23	4.93	5.70	5.46	
C=CCn1c(C)cc(C2=NNC(=NCC)SC2)c1C	5.63	5.76	5.83	5.71	5.52	5.76	
O=C(/C=C/Nc1ccccc1Br)c1ccccn1	5.96	6.30	6.38	6.22	6.05	5.88	
Cc1cccc(C)c1NC(=O)c1nc(S(=O)(=O)Cc2ccccc2)ncc1Cl	5.06	4.84	4.89	4.79	5.00	5.14	
COC1=CC(=O)c2c(ccc3ncnc(N)c23)C1=O	6.00	6.03	6.06	6.00	5.83	6.26	
O=C(Nc1ccccn1)c1cc2ccccc2o1	5.34	5.74	5.87	5.64	5.30	5.40	
O=C(N/N=C/c1cccs1)c1n[nH]c2c1CCCC2	5.28	5.22	5.29	5.16	5.46	5.16	
O=C(/C=C/c1ccccc1)Nc1cccc(C(=O)O)c1	5.65	5.27	5.40	5.18	5.75	5.58	
O=C(Nc1ccc(N2CCOCC2)cc1)c1cnsn1	5.67	5.59	5.60	5.57	5.55	5.83	
Cc1ccccc1OCC(=O)Nc1cccc(C(=O)O)c1	5.73	4.74	4.45	5.95	5.80	5.68	
CN(C)c1ccc(Nc2nc(N)c3ccccc3n2)cc1	5.44	6.00	6.06	5.95	5.60	5.32	
c1cc2c(cc1C1=NNC(=NC3CC3)SC1)OCCO2	6.12	5.33	5.86	5.09	6.18	6.06	
OCC1OC(n2ccc3c(NO)ncnc32)C(O)C1O (stereo unspecified)	6.42	5.49	5.56	5.44	6.36	6.49	
c1ccc(-c2nc(-c3ccccn3)no2)cc1		5.53	5.50	5.56	5.20	< 4.00	inactive
Oc1c(I)cc(Cl)c2cccnc12	4.80	4.75	4.80	4.70	5.10	4.63	
C(=NNc1ccc2ccccc2n1)c1ccccn1	5.78	5.84	5.88	5.81	5.92	5.68	
Cc1ccc(-c2nc(C(Cl)Cl)c3ccccc3n2)cc1					< 4.00	5.01	inactive
Cc1cccc(-n2ncc3c(N(C)C4CCCCC4)ncnc32)c1					4.65	4.57	inactive
Cc1cc(C(=O)COC(=O)c2ccccc2Br)c(C)n1CC1CCCO1 (stereo unspecified)					5.51	4.01	inactive
O=C(Nc1ccccc1)NN(C(=O)CCl)c1ccccc1	4.78				4.70	4.88	
Cc1c(OCC(=O)NC2CC(C)(C)NC(C)(C)C2)ccc2c1oc(=O)c1ccccc12					4.36	< 4.00	inactive

Compound	pIC50 (PEG-3 [1])	pIC50 (Rat fibroblasts (CREF); mean of runs)	pIC50 (Rat fibroblasts (CREF); [3])	pIC50 (Rat fibroblasts (CREF); [4])	pIC50 (PEG-3 [2]; [3])	pIC50 (PEG-3 [2]; [4])	IC50 (PEG-3 [1])
COc1ccc(NC(=O)Nc2nc(C(N)C3CCCCC3)cs2)cc1 (stereo unspecified)	4.70				4.75	4.66	
NCCc1c(-c2ccccc2)n(-c2ccccc2)c2ccccc12	4.89				4.76	5.08	
CCCCCCC=C1CCC(CN2CCCC2)C1=O (stereo unspecified)					4.45	4.53	inactive
COc1ccc2c(c1)C=C([C@@H]1C[C@H]3CN(c4ccccc4)C(=O)[C@]34CCCN14)CO2					< 4.00	< 4.00	> 100 µM (inactive)
COCc1ccc(CN2CCC(C(=O)Nc3cccc(-c4cccc(Cl)c4)c3)CC2)o1	4.88				4.78	5.01	
CCOC(=O)/C(=C\c1ccccc1)C(=O)CCN1CCOCC1	4.88				4.78	5.00	
COc1ccc(CNCCC(c2ccccc2)c2ccc(OC(C)C)cc2)cc1OC (stereo unspecified)	4.73				4.74	4.71	
CCOC(=O)c1c(C)[nH]c(C(=O)OCC(=O)Nc2sccc2C(N)=O)c1C					4.51	4.16	inactive
Cc1ccc(N(Cc2cc(=O)[nH]c3ccccc23)C(=O)CCl)c(C)c1					4.64	4.53	inactive
CN(C)c1ccc(N=Nc2nc3ccccc3n2C)cc1					4.69	> 4.00	inactive
CN[C@H]1C[C@H]2c3[nH]c4ccc(-c5cccc(C)c5)cc4c3CCN2C[C@H]1[C@H](C)O	4.87				4.73	5.08	
COc1ccc(NS(=O)(=O)c2ccc3ccccc3c2)c2ncccc12	4.75				4.87	4.67	
Cc1cc(C(=O)COC(=O)C2=COCCO2)c(C)n1-c1ccccc1	4.93				4.95	4.90	
CCCN1CCc2c(sc(NC(=O)c3ccc(S(=O)(=O)N4CCN(C(=O)OCC)CC4)cc3)c2C(N)=O)C1					4.66	4.67	inactive
O=c1[nH]c(=S)[nH]c(O)c1/C=C1\C=Nc2ccccc21					< 4.00	4.75	inactive
COc1ccc(CN(C)C(=O)C(Cc2ccccc2)NC(=O)c2ccccc2)cc1F (stereo unspecified)					4.22	4.19	inactive
COc1cccc(-c2cnc3c(NC=O)cc(-c4cccc(C(=O)N(C)C)c4)cn23)c1	4.73				4.70	4.75	
Cc1ccc(S(=O)(=O)N(C)C)cc1NC(=O)c1cncc(Br)c1					4.32	5.07	inactive
O=[N+]([O-])c1cc(F)c(N2CCCCCC2)cc1N1CCNCC1	4.80				4.72	4.90	
CCc1ccc(NC(=O)CSc2nc3ccccc3c(=O)n2CCCN2CCC(C)CC2)cc1	4.76				4.70	4.83	
N#C/C(=C\c1cccc([N+](=O)[O-])c1)C(=O)NCc1ccc(Cl)cc1	4.85				4.83	4.87	

Compound	pIC50 (PEG-3 [1])	pIC50 (Rat fibroblasts (CREF); mean of runs)	pIC50 (Rat fibroblasts (CREF); [3])	pIC50 (Rat fibroblasts (CREF); [4])	pIC50 (PEG-3 [2]; [3])	pIC50 (PEG-3 [2]; [4])	IC50 (PEG-3 [1])
CCc1ccc(O)c(CNCCNCc2cc(CC)ccc2O)c1	4.73				4.69	4.78	
COCC(C)n1c(C)cc(C(=O)COC(=O)c2cccn2C)c1C (stereo unspecified)					4.48	< 4.00	inactive
COc1ccc(C23CC4CC(CC(C4)C2)C3)cc1C(=O)NCCN(C)C					4.69	4.52	inactive
CCN1CCN(Cc2ccc(NC(=O)c3cc(NC(=O)c4ccno4)cc(OC)c3)cc2C(F)(F)F)CC1					4.39	4.34	inactive
C=C(C)Cn1c(SCC(=O)N/N=C/c2c(O)ccc3ccccc23)nc2ccccc2c1=O					< 4.00	< 4.00	> 100 µM (inactive)
Cc1ccc(C(=O)N/C(=C\c2ccc(-c3cccc([N+](=O)[O-])c3)o2)C(=O)NCCCN(C)C)cc1	4.77				4.73	4.82	
O=C(/C=C/c1ccccc1)NC(NC(=S)Nc1cccc(Cl)c1)C(Cl)(Cl)Cl (stereo unspecified)	4.84				4.74	4.97	
CC(C)CC(N)c1csc(Nc2ccc(C(=O)N(C)Cc3ccccc3)cn2)n1 (stereo unspecified)					4.85	4.54	inactive
O=C(NC1=C(NC2CCS(=O)(=O)C2)C(=O)c2ccccc2C1=O)c1ccccc1 (stereo unspecified)	4.72				4.72	4.73	
Cn1nnnc1Sc1ncnc2scc(-c3ccsc3)c12	4.94				4.83	5.08	
Cc1ccc(CC2(OCCN(C)C)CCC(C(C)(C)C)CC2)cc1 (stereo unspecified)	4.77				4.72	4.84	
Nc1c(C(=O)Nc2cccc(C(=O)O)c2)sc2nc3c(cc12)CCCC3	4.95				5.36	4.74	
c1ccc(C[C@H]2CNCCN2CCCCC2CCCCC2)cc1	4.76				4.70	4.83	
c1ccc(CN=C(NCc2ccccc2)NCc2ccccc2)cc1					4.63	4.38	inactive
Cc1ccc2sc(N(CCCN(C)C)C(=O)c3ccc(S(=O)(=O)N(C)C4CCCCC4)cc3)nc2c1C	4.76				4.68	4.86	
Cc1ccc(C)c(NP(=O)(Oc2ccccc2)Oc2ccccc2)c1					4.54	4.72	inactive
CCN1CCN(c2ncc(C(=O)Nc3cc(Cl)ccc3OC)c3ccccc23)CC1					4.57	4.29	inactive
CCOC(=O)c1c(NC(=O)COc2ccccc2F)sc2c1CC(C)(C)NC2(C)C					4.76	4.46	inactive
CN1CCN(c2ccc(NC(=O)N3CCc4ccccc43)cc2)CC1					4.82	4.41	inactive
